Results on 16 molecules are retold here after patent US20240182460A1, “ALLOSTERIC CHROMENONE INHIBITORS OF PHOSPHOINOSITIDE 3-KINASE (PI3K) FOR THE TREATMENT OF DISEASE” (PETRA PHARMA CORPORATION, priority 2022, published 2024).

The target in one data set is T1, PI3Kα H1047R (Homo sapiens, UniProt P42336, H1047R).
T1 construct: The MDA-MB-453 (ATCC-HTB-131) cell line (PI3Kα H1047R); host or cells: MDA-MB-453
The data set is described as follows: PI3Kα H1047R mutant in vitro cell based assay, MDA-MB-453 cells (AlphaLisa SureFire). Conditions: MDA-MB-453 cell line, 0% FBS, 3 hours treatment. The source says:
PI3K-Alpha Kinase (PI3Kα) Activity: Wild-Type PI3Kα, H1047R Mutant PI3Kα, and E545K Mutant PI3Kα In Vitro Cell Based Assays and Determination of IC50 Values for Inhibitors
The MDA-MB-453 (ATCC-HTB-131) cell line (PI3Kα H1047R) and MCF-7 (ATCC-HTB-22) cell line (PI3Kα E545K), MDA-MB-361 (ATCC-HTB-27) cell line (PI3Kα E545K), and SKBR3 (ATCC-HTB-30) cell line (wild type PI3Kα) were obtained from the American Type Culture Collection (Manassas, VA). MDA-MB-453 cells were maintained in Dulbecco's Modified Eagle Media (DMEM, Gibco 12430) supplemented with 10% Fetal Bovine Serum, heat inactivated (FBS HI, Gibco 10082), 1× non-essential amino acids (NEAA, Gibco 11140), 1 mM sodium pyruvate (Gibco 11360) and 1× Anti-Anti (Gibco 15240). MCF-7 cells were maintained in Minimum Essential Media (MEM) (Gibco 11095) supplemented with 10% Fetal Bovine Serum, heat inactivated (FBS HI, Gibco 10082), 1× non-essential amino acids (NEAA, Gibco 11140), 1 mM sodium pyruvate (Gibco 11360), 1× Anti-Anti (Gibco 15240) and 10 μg/mL human insulin (Sigma I 9278). MDA-MB-361 cells were maintained in Dulbecco's Modified Eagle Media (DMEM, Gibco 12430) supplemented with 20% Fetal Bovine Serum, heat inactivated (FBS HI, Gibco 10082), 1× non-essential amino acids (NEAA, Gibco 11140), 1 mM sodium pyruvate (Gibco 11360) and 1× Anti-Anti (Gibco 15240). SKBR3 cells were maintained in McCoy's 5A (Gibco 16600) supplemented with 10% Fetal Bovine Serum, heat inactivated (FBS HI, Gibco 10082), and 1× Anti-Anti (Gibco 15240). Cultures were maintained in a humidified incubator at 37° C. under 5% CO2/95% air.
For compound testing in 0% FBS, MDA-MB-453, MCF-7 and SKBR3 cells were seeded at a density of 1.5×10^4, 1.0×10^4, and 1.0×10^4 cells, respectively, per well in white 384-well plates in 20 μl of Minimum Essential Media (MEM) assay media with 1×NEAA, 1 mM sodium pyruvate, and 1 μg/mL human insulin (Sigma 19278) (Assay Medium); while MDA-MB-361 cells were seeded at a density of 1.5×10^4 per well in white 384-well plates in 20 μl Assay Medium without insulin. After plating, cells were allowed to attach overnight. Compounds dissolved in 10 mM stock solutions in DMSO were serially diluted 1:3 in DMSO to generate a 10-point dilution series and plated using an acoustic liquid handler system (Echo 550 Series Liquid Handler, Labcyte). A 5× intermediate compound dilution plate in MEM with 1×NEAA and 1 mM sodium pyruvate (150 μM starting compound concentration in 1.5% DMSO) was then prepared. Five μl of the intermediate serially diluted compounds were added to the cell plate to final concentrations ranging from […] in 0.3% DMSO. 0.3% DMSO alone was used to establish the maximum (MAX) signal and GDC-0032 at a final concentration of 1 μM was used as a reference compound for the minimum (MIN) signal. After 3 hours treatment, the medium was removed, and the cells were lysed in 10 μL of 1× SureFire Lysis buffer with shaking for 10 minutes at room temperature. The Acceptor Mix (Reaction Buffer 1+Reaction Buffer 2+Activation Buffer+SureFire Ultra Acceptor Beads) was prepared by diluting Activation buffer 25-fold in combined Reaction Buffer 1 and Reaction Buffer 2.
The Acceptor beads were diluted 50-fold in the combined Reaction Buffers. Five μL of Acceptor Mix was added to each well, the plate was sealed and covered with foil and incubated for 1 hour at room temperature. The Donor Mix (dilution buffer+SureFire Ultra Donor Beads) was prepared by diluting Donor Beads 50-fold in dilution buffer. Five μL of the Donor Mix was added to each well and the plate sealed and covered with foil and incubated for 1-2 hours at room temperature in the dark. The plates were read on a Neo2 plate reader instrument from Biotek using standard AlphaLisa settings.
Compounds were tested in duplicate and the % inhibition at each compound concentration was used to generate two dose response curves. One IC50 was generated using average % inhibition at each compound concentration. […]
(In general: Bead proximity is the source of the signal in Alpha formats.)

A further data set deals with PI3Kα E545K (Homo sapiens, UniProt P42336, E545K). The data set is described as follows: PI3Kα E545K mutant in vitro cell based assay, MDA-MB-361 cells. Details: MDA-MB-361 (ATCC-HTB-27) cell line (PI3Kα E545K); host or cells: MDA-MB-361. Conditions: MDA-MB-361 cell line, 0% FBS, no insulin, 3 hours treatment. In a few lines: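 Compound exposure lasted 3 hours, in duplicate 10-point 1:3 dilutions at 0.3% DMSO final, on overnight-attached MDA-MB-361 cells carrying PI3Kα E545K in insulin-free, 0% FBS MEM. Lysates read by SureFire AlphaLISA. Relative IC50 from 4-parameter logistic fit versus DMSO and 1 μM GDC-0032 controls.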
PI3Kα E545K, sequence (P42336 whole entry E545K): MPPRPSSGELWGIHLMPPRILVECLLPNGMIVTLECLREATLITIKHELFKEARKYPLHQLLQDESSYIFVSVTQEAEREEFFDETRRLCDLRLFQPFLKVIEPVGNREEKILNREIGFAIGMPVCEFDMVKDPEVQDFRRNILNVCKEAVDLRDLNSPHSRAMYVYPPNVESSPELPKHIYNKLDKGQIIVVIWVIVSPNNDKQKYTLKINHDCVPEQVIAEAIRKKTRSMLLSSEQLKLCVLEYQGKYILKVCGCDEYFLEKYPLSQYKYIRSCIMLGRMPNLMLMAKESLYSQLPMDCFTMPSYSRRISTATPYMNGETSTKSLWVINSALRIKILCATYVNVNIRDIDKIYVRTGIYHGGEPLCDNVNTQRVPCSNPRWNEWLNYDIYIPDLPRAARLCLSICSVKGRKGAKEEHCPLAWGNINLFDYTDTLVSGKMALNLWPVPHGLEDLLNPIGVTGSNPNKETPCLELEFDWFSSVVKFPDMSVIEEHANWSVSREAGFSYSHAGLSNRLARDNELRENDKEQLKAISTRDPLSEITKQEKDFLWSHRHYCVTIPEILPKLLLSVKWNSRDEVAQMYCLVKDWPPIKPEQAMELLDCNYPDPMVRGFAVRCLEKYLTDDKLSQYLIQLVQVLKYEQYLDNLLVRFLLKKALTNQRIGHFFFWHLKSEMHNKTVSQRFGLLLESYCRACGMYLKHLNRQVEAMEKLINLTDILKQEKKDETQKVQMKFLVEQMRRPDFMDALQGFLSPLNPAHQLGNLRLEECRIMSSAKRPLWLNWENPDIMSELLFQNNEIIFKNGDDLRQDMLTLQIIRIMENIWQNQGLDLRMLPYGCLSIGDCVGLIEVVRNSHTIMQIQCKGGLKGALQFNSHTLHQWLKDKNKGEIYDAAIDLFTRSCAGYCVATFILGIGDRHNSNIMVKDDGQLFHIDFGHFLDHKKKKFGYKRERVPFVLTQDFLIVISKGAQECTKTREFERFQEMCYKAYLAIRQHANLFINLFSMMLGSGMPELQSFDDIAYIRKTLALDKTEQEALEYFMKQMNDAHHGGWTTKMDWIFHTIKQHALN
PI3Kα E545K, sequence (P27986 whole entry partner): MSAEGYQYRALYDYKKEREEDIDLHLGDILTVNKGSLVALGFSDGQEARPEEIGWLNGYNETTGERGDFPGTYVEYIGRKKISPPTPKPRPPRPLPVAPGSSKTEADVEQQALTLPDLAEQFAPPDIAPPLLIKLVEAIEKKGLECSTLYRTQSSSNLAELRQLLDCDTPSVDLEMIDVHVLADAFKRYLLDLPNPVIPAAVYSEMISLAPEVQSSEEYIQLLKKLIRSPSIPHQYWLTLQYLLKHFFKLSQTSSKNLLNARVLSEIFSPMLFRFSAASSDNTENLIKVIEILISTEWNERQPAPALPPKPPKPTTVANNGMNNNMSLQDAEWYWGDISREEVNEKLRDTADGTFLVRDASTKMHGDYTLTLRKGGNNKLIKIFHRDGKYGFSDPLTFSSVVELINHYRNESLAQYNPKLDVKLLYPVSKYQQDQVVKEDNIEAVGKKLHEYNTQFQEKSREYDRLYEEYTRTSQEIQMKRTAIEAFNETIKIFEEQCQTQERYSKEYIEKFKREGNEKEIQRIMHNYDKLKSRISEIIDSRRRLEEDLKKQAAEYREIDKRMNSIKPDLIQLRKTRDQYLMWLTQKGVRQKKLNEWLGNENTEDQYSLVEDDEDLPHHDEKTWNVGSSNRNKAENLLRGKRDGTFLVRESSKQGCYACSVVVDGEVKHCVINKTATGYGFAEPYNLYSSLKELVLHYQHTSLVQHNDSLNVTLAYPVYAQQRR

A short description of data set [1]: Metabolic stability and intrinsic clearance in human liver microsomes (MICS). In kind it is in vitro ADME. The conditions noted are these: human, microsomes, pH 7.4. In a few lines: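 Parent depletion by LC-MS/MS, run in duplicate, gave in vitro t1/2 from the slope of ln(% remaining) versus time, converted to CLint (μL/min/mg protein). Incubations: 1 μM compound, microsomes at 0.5 mg/mL, pH 7.4 phosphate, 37° C, ±1 mM NADPH, timepoints 0.5, 5, 15, 30, 60 min.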

pIC50: −log10 of the molar value.

T1 sequence (P42336 whole entry H1047R): as the sequence (P42336 whole entry E545K) above, with K545E, H1047R counted along it
T1 sequence (P27986 whole entry partner): as the sequence (P27986 whole entry partner) above

In the case of `Cc1cc([C@@H](C)Oc2ccc(Cl)nc2C(N)=O)c2oc(-c3cnn4c3CCC4)c(C)c(=O)c2c1` [Example 123A, 6-Chloro-3-[(1R)-1-[2-(5,6-dihydro-4H-pyrrolo[2,1-e]pyrazol-3-yl)-3,6-dimethyl-4-oxo-chromen-8-yl]ethoxy]pyridine-2-carboxamide], the figures for the pIC50 against PI3Kα H1047R and against PI3Kα E545K were above 7.00 and above 6.30, respectively.

On to `Cc1cc([C@@H](C)Oc2ccc(Cl)nc2S(N)(=O)=O)c2oc(-c3cnn(CCO)c3)c(C)c(=O)c2c1` [Example 61A, 6-Chloro-3-[(1R)-1-[2-[1-(2-hydroxyethyl)pyrazol-4-yl]-3,6-dimethyl-4-oxo-chromen-8-yl]ethoxy]pyridine-2-sulfonamide], for which the pIC50 (as a rule, −log10 of the IC50, conventionally taken in molar units) was above 7.00 against PI3Kα H1047R and above 6.30 on PI3Kα E545K.

With `Cc1cc([C@@H](C)Oc2ccc(Cl)nc2S(N)(=O)=O)c2oc(-c3cccnc3)c(C)c(=O)c2c1` [Example 42A, 6-Chloro-3-[(1R)-1-[3,6-dimethyl-4-oxo-2-(3-pyridyl)chromen-8-yl]ethoxy]pyridine-2-sulfonamide], the pIC50 on PI3Kα H1047R was above 7.00. Moreover, the microsomal CLint – broadly, a measure of how fast metabolising enzymes remove a compound, apart from limits set by blood flow – at 1 μM in data set [1] was below 50 µL/min/mg.

Take `Cc1cc([C@@H](C)Oc2ccc(Cl)nc2C(N)=O)c2oc(-c3cnc(C)s3)c(C)c(=O)c2c1` [Example 63C, 6-Chloro-3-[(1R)-1-[3,6-dimethyl-2-(2-methylthiazol-5-yl)-4-oxo-chromen-8-yl]ethoxy]pyridine-2-carboxamide]: the values for the negative-log IC50 (pIC50) at PI3Kα H1047R and against PI3Kα E545K were above 7.00 and above 6.30, respectively.

`Cc1cc([C@@H](C)Oc2ccc(Cl)nc2C(N)=O)c2oc(-c3cnn4c3OCC4(C)C)c(C)c(=O)c2c1` [Example 65C, 6-Chloro-3-[(1R)-1-[2-(3,3-dimethyl-2H-pyrazolo[5,1-b]oxazol-7-yl)-3,6-dimethyl-4-oxo-chromen-8-yl]ethoxy]pyridine-2-carboxamide]: the pIC50 was above 7.00 against PI3Kα H1047R and above 6.30 at PI3Kα E545K.

In the case of `Cc1cc([C@@H](C)Oc2ccc(Cl)nc2C(N)=O)c2oc(-c3cnn4c3OCC4)c(C)c(=O)c2c1` [Example 36C, 6-Chloro-3-[(1R)-1-[2-(2,3-dihydropyrazolo[5,1-b]oxazol-7-yl)-3,6-dimethyl-4-oxo-chromen-8-yl]ethoxy]pyridine-2-carboxamide], the pIC50 at PI3Kα H1047R is above 7.00; on PI3Kα E545K, above 6.30.

With `Cc1cc([C@@H](C)Oc2ccc(Cl)nc2S(N)(=O)=O)c2oc(-c3cnn(CCS(C)(=O)=O)c3)c(C)c(=O)c2c1` [Example 90C, 6-Chloro-3-[(1R)-1-[3,6-dimethyl-2-[1-(2-methylsulfonylethyl)pyrazol-4-yl]-4-oxo-chromen-8-yl]ethoxy]pyridine-2-sulfonamide], the pIC50 is above 7.00 on PI3Kα H1047R and above 6.30 at PI3Kα E545K.

As for `Cc1cc([C@@H](C)Oc2ccc(Cl)nc2C(N)=O)c2oc(-c3ccc4c(cnn4C)c3)c(C)c(=O)c2c1` [Example 40C, 6-Chloro-3-[(1R)-1-[3,6-dimethyl-2-(1-methylindazol-5-yl)-4-oxo-chromen-8-yl]ethoxy]pyridine-2-carboxamide], the results for the pIC50 on PI3Kα H1047R and on PI3Kα E545K were above 7.00 and above 6.30, respectively.

With `Cc1cc([C@@H](C)Oc2ccc(Cl)nc2-c2noc(=O)[nH]2)c2oc(-c3ccc4c(c3)OCCN4C)c(C)c(=O)c2c1` [Example 48A, 3-[6-Chloro-3-[(1R)-1-[3,6-dimethyl-2-(4-methyl-2,3-dihydro-1,4-benzoxazin-7-yl)-4-oxo-chromen-8-yl]ethoxy]-2-pyridyl]-4H-1,2,4-oxadiazol-5-one], the results for the pIC50 at PI3Kα H1047R and on PI3Kα E545K were above 7.00 and above 6.30, respectively.

In the case of `Cc1cc([C@@H](C)Oc2ccc(Cl)nc2C(N)=O)c2oc(-c3cc(F)c4nc(C)cn4c3)c(C)c(=O)c2c1` [Example 38C], the pIC50 at PI3Kα H1047R was above 7.00; against PI3Kα E545K it was above 6.30.

Regarding `Cc1cc([C@@H](C)Oc2ccc(Cl)nc2-c2noc(=O)[nH]2)c2oc(-c3cnc4c(c3)OCO4)c(C)c(=O)c2c1` [Example 39A, 3-[6-Chloro-3-[(1R)-1-[2-([1,3]dioxolo[4,5-b]pyridin-6-yl)-3,6-dimethyl-4-oxo-chromen-8-yl]ethoxy]-2-pyridyl]-4H-1,2,4-oxadiazol-5-one], the pIC50 against PI3Kα H1047R is above 7.00. This molecule showed a microsomal CLint at 1 μM in data set [1] below 50 µL/min/mg.

As for `Cc1cc([C@@H](C)Oc2ccc(Cl)nc2C(N)=O)c2oc(-c3ccc4nc(C)oc4c3)c(C)c(=O)c2c1` [Example 53C, 6-Chloro-3-[(1R)-1-[3,6-dimethyl-2-(2-methyl-1,3-benzoxazol-6-yl)-4-oxo-chromen-8-yl]ethoxy]pyridine-2-carboxamide], the pIC50 against PI3Kα H1047R was above 7.00; at PI3Kα E545K it was above 6.30.

On to `CONC(=O)c1c(O[C@H](C)c2cc(C)cc3c(=O)c(C)c(-c4ccc5nn(C)cc5c4)oc23)ccc(F)c1F` [Example 37A, 6-[(1R)-1-[3,6-Dimethyl-2-(2-methylindazol-5-yl)-4-oxo-chromen-8-yl]ethoxy]-2,3-difluoro-N-methoxy-benzamide], for which the pIC50 was above 7.00 against PI3Kα H1047R and above 6.30 against PI3Kα E545K.

On to `Cc1cc([C@@H](C)Oc2ccc(Cl)nc2C(N)=O)c2oc(-c3ccc4nn(CF)cc4c3)c(C)c(=O)c2c1` [Example 66C, 6-Chloro-3-[(1R)-1-[2-[2-(fluoromethyl)indazol-5-yl]-3,6-dimethyl-4-oxo-chromen-8-yl]ethoxy]pyridine-2-carboxamide], for which the results for the pIC50 against PI3Kα H1047R and at PI3Kα E545K were above 7.00 and above 6.30, respectively.

`CONC(=O)c1nc(Cl)ccc1O[C@H](C)c1cc(C)cc2c(=O)c(C)c(-c3ccc4nc(C)sc4c3)oc12` [Example 69C, 6-Chloro-3-[(1R)-1-[3,6-dimethyl-2-(2-methyl-1,3-benzothiazol-6-yl)-4-oxo-chromen-8-yl]ethoxy]-N-methoxy-pyridine-2-carboxamide]: the pIC50 is above 7.00 on PI3Kα H1047R and above 6.30 against PI3Kα E545K.

For `Cc1cc([C@@H](C)Oc2ccc(Cl)nc2C(N)=O)c2oc(-c3ccc4ncsc4c3)c(C)c(=O)c2c1` [Example 12B, 3-[(1R)-1-[2-(1,3-Benzothiazol-6-yl)-3,6-dimethyl-4-oxo-chromen-8-yl]ethoxy]-6-chloro-pyridine-2-carboxamide], the pIC50 is above 7.00 at PI3Kα H1047R and above 6.30 on PI3Kα E545K.
